Measured values from PubChem BioAssay AID256 (DTP/NCI, 2004).
Where “and” joins values, the source holds several entries; their conditions need not be identical. Equal entries are not always repeated. Inconclusive results and toxic doses are left out. The calls were made as follows: active = survival T/C of 150% or more; inactive = T/C below 125% in these data.

Test system: CD2F1 mice, L1210 leukemia ip, survival T/C
Assay: NCI In Vivo Anticancer Drug Screen. Data for tumor model L1210 Leukemia (intraperitoneal) in CD2F1 (CDF1) mice
Details: endpoint: median survival time, higher = longer survival
Method in brief: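 Read-out first: treated-group measurement over vehicle-control measurement, expressed as a ratio. Animals bore a transplanted tumor line and were dosed with compound or vehicle.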

Measured: T/C

COc1cc([C@@H]2c3cc4c(cc3[C@@H](OC3OC5COC(C)OC5C(O)C3O)[C@H]3COC(=O)[C@H]23)OCO4)cc(OC)c1O (stereo partly drawn)
inactive: dose: 32.0 mg/kg/injection, schedule: Q01DX001 (oral), vehicle: Klucel (hydroxypropylcellulose) (HPC) 105 % of control | dose: 32.0 mg/kg/injection, schedule: Q01DX009 (ip), vehicle: other 87 % of control | dose: 32.0 mg/kg/injection, schedule: Q01DX009 (ip), vehicle: saline 110 % of control | dose: 32.0 mg/kg/injection, schedule: Q01DX009 (oral), vehicle: Klucel (hydroxypropylcellulose) (HPC) 122 % of control | dose: 32.0 mg/kg/injection, schedule: Q01DX009 (sc), vehicle: other 87 % of control | dose: 32.0 mg/kg/injection, schedule: Q03HX008 (oral), vehicle: Klucel (hydroxypropylcellulose) (HPC) 122 % of control | dose: 32.0 mg/kg/injection, schedule: Q03HX016 (oral), vehicle: Klucel (hydroxypropylcellulose) (HPC) 116 % of control | dose: 32.0 mg/kg/injection, schedule: Q04DX003 (oral), vehicle: Klucel (hydroxypropylcellulose) (HPC) 105 % of control | dose: 32.0 mg/kg/injection, schedule: Q08DX002 (oral), vehicle: Klucel (hydroxypropylcellulose) (HPC) 111 % of control | dose: 64.0 mg/kg/injection, schedule: Q01DX001 (oral), vehicle: Klucel (hydroxypropylcellulose) (HPC) 111 % of control | dose: 64.0 mg/kg/injection, schedule: Q01DX009 (ip), vehicle: saline 102 % of control | dose: 64.0 mg/kg/injection, schedule: Q03HX008 (oral), vehicle: Klucel (hydroxypropylcellulose) (HPC) 116 % of control | dose: 64.0 mg/kg/injection, schedule: Q03HX024 (oral), vehicle: Klucel (hydroxypropylcellulose) (HPC) 94 % of control | dose: 64.0 mg/kg/injection, schedule: Q04DX003 (oral), vehicle: Klucel (hydroxypropylcellulose) (HPC) 122 % of control | dose: 64.0 mg/kg/injection, schedule: Q08DX002 (oral), vehicle: Klucel (hydroxypropylcellulose) (HPC) 111 % of control | dose: 128.0 mg/kg/injection, schedule: Q01DX001 (ip), vehicle: other 112 % of control | dose: 128.0 mg/kg/injection, schedule: Q01DX001 (oral), vehicle: Klucel (hydroxypropylcellulose) (HPC) 111 % of control | dose: 128.0 mg/kg/injection, schedule: Q01DX001 (sc), vehicle: other 87 % of control | dose: 128.0 mg/kg/injection, schedule: Q03HX008 (oral), vehicle: Klucel (hydroxypropylcellulose) (HPC) 122 % of control | dose: 128.0 mg/kg/injection, schedule: Q04DX003 (ip), vehicle: other 118 % of control | dose: 128.0 mg/kg/injection, schedule: Q04DX003 (oral), vehicle: Klucel (hydroxypropylcellulose) (HPC) 116 % of control | dose: 128.0 mg/kg/injection, schedule: Q08DX002 (oral), vehicle: Klucel (hydroxypropylcellulose) (HPC) 111 % of control | dose: 256.0 mg/kg/injection, schedule: Q01DX001 (oral), vehicle: Klucel (hydroxypropylcellulose) (HPC) 122 % of control | dose: 256.0 mg/kg/injection, schedule: Q01DX001 (oral), vehicle: other 118 % of control and 112 % of control | dose: 256.0 mg/kg/injection, schedule: Q01DX001 (sc), vehicle: other 87 % of control | dose: 256.0 mg/kg/injection, schedule: Q04DX003 (oral), vehicle: Klucel (hydroxypropylcellulose) (HPC) 122 % of control | dose: 256.0 mg/kg/injection, schedule: Q08DX002 (oral), vehicle: Klucel (hydroxypropylcellulose) (HPC) 111 % of control | dose: 512.0 mg/kg/injection, schedule: Q01DX001 (oral), vehicle: Klucel (hydroxypropylcellulose) (HPC) 122 % of control | dose: 512.0 mg/kg/injection, schedule: Q01DX009 (oral), vehicle: other 100 % of control and 112 % of control | dose: 512.0 mg/kg/injection, schedule: Q08DX002 (oral), vehicle: Klucel (hydroxypropylcellulose) (HPC) 105 % of control | dose: 1024.0 mg/kg/injection, schedule: Q01DX001 (oral), vehicle: Klucel (hydroxypropylcellulose) (HPC) 122 % of control | dose: 1024.0 mg/kg/injection, schedule: Q01DX009 (oral), vehicle: other 87 % of control and 100 % of control | dose: 1024.0 mg/kg/injection, schedule: Q08DX002 (oral), vehicle: Klucel (hydroxypropylcellulose) (HPC) 111 % of control
active: dose: 16.0 mg/kg/injection, schedule: Q04DX003 (ip), vehicle: other 212 % of control | dose: 16.0 mg/kg/injection, schedule: Q08DX002 (ip), vehicle: other 200 % of control | dose: 32.0 mg/kg/injection, schedule: Q01DX001 (ip), vehicle: other 162 % of control | dose: 32.0 mg/kg/injection, schedule: Q01DX001 (sc), vehicle: other 150 % of control | dose: 32.0 mg/kg/injection, schedule: Q04DX003 (ip), vehicle: other 206 % of control | dose: 32.0 mg/kg/injection, schedule: Q08DX002 (ip), vehicle: other 200 % of control | dose: 64.0 mg/kg/injection, schedule: Q01DX001 (ip), vehicle: other 218 % of control | dose: 64.0 mg/kg/injection, schedule: Q01DX001 (sc), vehicle: other 187 % of control | dose: 64.0 mg/kg/injection, schedule: Q01DX009 (oral), vehicle: other 162 % of control | dose: 64.0 mg/kg/injection, schedule: Q04DX003 (ip), vehicle: other 156 % of control | dose: 64.0 mg/kg/injection, schedule: Q08DX002 (ip), vehicle: other 212 % of control | dose: 128.0 mg/kg/injection, schedule: Q03HX016 (oral), vehicle: Klucel (hydroxypropylcellulose) (HPC) 150 % of control | dose: 128.0 mg/kg/injection, schedule: Q08DX002 (ip), vehicle: other 175 % of control | dose: 512.0 mg/kg/injection, schedule: Q01DX001 (oral), vehicle: other 150 % of control | dose: 1024.0 mg/kg/injection, schedule: Q01DX001 (oral), vehicle: other 150 % of control
